Measurements taken from ChEMBL document CHEMBL5331042, “Azole inhibitors of mushroom and human tyrosinases: Current advances and prospects of drug development for melanogenic dermatological disorders” (Eur J Med Chem, 2022).

These compounds were tested against T1, Mushroom tyrosinase (Agaricus bisporus, UniProt O42713+Q00024+C7FF04+C7FF05) (assay: Inhibition of mushroom tyrosinase incubated for 10 mins by spectrophotometric analysis).

Compound `CCCCCn1nc(-c2ccccc2)n(CC(=O)NNC(=O)Nc2ccc(C(F)(F)F)cc2)c1=O` has an IC50 greater than 20000 nM.
`CCCCCn1nc(-c2ccccc2)n(CC(=O)NNC(=O)Nc2cccc(Cl)c2)c1=O` gave an IC50 greater than 20000 nM.
In the case of `CCCCCn1nc(-c2ccccc2)n(CC(=O)NNC(=S)Nc2cccc(Br)c2)c1=O`, the IC50 is reported as greater than 20000 nM.
`CCCCCn1nc(-c2ccccc2)n(CC(=O)NNC(=O)Nc2ccc(Br)cc2)c1=O` was tested, and the IC50 was greater than 20000 nM.
`CCCCCn1nc(-c2ccccc2)n(CC(=O)NNC(=O)Nc2ccccc2Cl)c1=O` showed an IC50 greater than 20000 nM.
In the case of `CCCCCn1nc(-c2ccccc2)n(CC(=O)NNC(=S)Nc2ccccc2Br)c1=O`, the IC50 is reported as greater than 20000 nM.
With `CCCCCn1nc(-c2ccccc2)n(CC(=O)NNC(=O)Nc2ccc(F)cc2)c1=O` the IC50 was greater than 20000 nM.
In the case of `CCCCCn1nc(-c2ccccc2)n(CC(=O)NNC(=O)Nc2cc(Cl)cc(Cl)c2)c1=O`, the IC50 is reported as greater than 20000 nM.
Work on `CCCCCn1nc(-c2ccccc2)n(CC(=O)NNC(=S)Nc2cc(C(F)(F)F)cc(C(F)(F)F)c2)c1=O` yielded an IC50 greater than 20000 nM.
`CCCCCn1nc(-c2ccccc2)n(CC(=O)NNC(=S)Nc2cccc(C(F)(F)F)c2)c1=O` was tested, and the IC50 was greater than 20000 nM.
Work on `CCCCCn1nc(-c2ccccc2)n(CC(=O)NNC(=S)Nc2ccccc2F)c1=O` yielded an IC50 greater than 20000 nM.
`CCCCCn1nc(-c2ccccc2)n(CC(=O)NNC(=O)Nc2cccc(F)c2)c1=O` showed an IC50 greater than 20000 nM.
With `CCCCCn1nc(-c2ccccc2)n(CC(=O)NNC(=S)Nc2ccc(Cl)cc2Cl)c1=O` the IC50 was greater than 20000 nM.
In the case of `CCCCCn1nc(-c2ccccc2)n(CC(=O)NNC(=O)Nc2ccc(F)cc2F)c1=O`, the IC50 is reported as greater than 20000 nM.
Compound `CCCCCn1nc(-c2ccccc2)n(CC(=O)NNC(=O)Nc2ccc(Cl)cc2)c1=O` has an IC50 greater than 20000 nM.
In the case of `CCCCCn1nc(-c2ccccc2)n(CC(=O)NNC(=O)Nc2cccc(Br)c2)c1=O`, the IC50 is reported as greater than 20000 nM.
`CCCCCn1nc(-c2ccccc2)n(CC(=O)NNC(=O)Nc2ccccc2F)c1=O` was tested, and the IC50 was greater than 20000 nM.

`CCCCCn1nc(-c2ccccc2)n(CC(=O)NNC(=O)Nc2cc(C(F)(F)F)cc(C(F)(F)F)c2)c1=O` and `CCCCCn1nc(-c2ccccc2)n(CC(=O)NNC(=O)Nc2cccc(C(F)(F)F)c2)c1=O` are within 1.5-fold of each other in IC50: 1.97 nM for the first, 1.65 nM for the second.

First: CCCCCn1nc(-c2ccccc2)n(CC(=O)NNC(=S)Nc2ccc(Cl)cc2)c1=O
Second: CCCCCn1nc(-c2ccccc2)n(CC(=O)NNC(=S)Nc2ccc(Br)cc2)c1=O
The IC50 of the first is 10-fold higher: 190 nM for the first, 19 nM for the second.

`CCCCCn1nc(-c2ccccc2)n(CC(=O)NNC(=S)Nc2ccccc2Cl)c1=O` and `CCCCCn1nc(-c2ccccc2)n(CC(=O)NNC(=S)Nc2cccc(Cl)c2)c1=O` are within 1.5-fold of each other in IC50: 4680 nM for the first, 5400 nM for the second.

Going from `CCCCCn1nc(-c2ccccc2)n(CC(=O)NNC(=S)Nc2cc(Cl)cc(Cl)c2)c1=O` to `CCCCCn1nc(-c2ccccc2)n(CC(=O)NNC(=S)Nc2cccc(F)c2)c1=O`, the IC50 rises from 170 nM to 15200 nM (89-fold).

First: CCCCCn1nc(-c2ccccc2)n(CC(=O)NNC(=O)Nc2ccc(Cl)cc2Cl)c1=O
Second: CCCCCn1nc(-c2ccccc2)n(CC(=O)NNC(=S)Nc2ccc(F)cc2F)c1=O
The IC50 of the first is 12-fold lower: 1.62 nM for the first, 19 nM for the second.

`CCCCCn1nc(-c2ccccc2)n(CC(=O)NNC(=S)Nc2ccc(C(F)(F)F)cc2)c1=O` showed an IC50 of 1490 nM.

What follows are compounds tested against T1, Mushroom tyrosinase (assay: Inhibition of mushroom tyrosinase using L-DOPA as substrate preincubated for 10 mins followed by substrate addition and measured after 20 mins by absorbance based analysis).

`O=C1C=C(Cn2cc(COc3cccc(F)c3)nn2)C(=O)C=C1O` and `O=C1C=C(Cn2cc(COc3cccc(Cl)c3)nn2)C(=O)C=C1O` are within 1.5-fold of each other in IC50: 1070 nM for the first, 990 nM for the second.

First: Cc1cccc(C)c1NC(=O)CSc1nnc(Cc2csc(N)n2)n1-c1ccccc1
Second: CCc1cccc(C)c1NC(=O)CSc1nnc(Cc2csc(N)n2)n1-c1ccccc1
The IC50 of the first is 3.7-fold lower: 51 nM for the first, 190 nM for the second.

`COc1ccc(C2=NC(=S)C(C3N=NN=N3)C(=O)O2)cc1` (stereo unspecified) and `O=C1OC(c2cccc(Cl)c2)=NC(=S)C1C1N=NN=N1` (stereo unspecified) are within 1.5-fold of each other in IC50: 73 nM for the first, 71 nM for the second.

First: O=C1OC(c2ccc(Cl)cc2Cl)=NC(=S)C1c1nn[nH]n1 (stereo unspecified)
Second: O=C1OC(c2ccccc2Cl)=NC(=S)C1c1nn[nH]n1 (stereo unspecified)
The IC50 of the first is 1.9-fold lower: 47 nM for the first, 88 nM for the second.

Going from `COc1ccc(OCc2cn(CC3=CC(=O)C(O)=CC3=O)nn2)cc1` to `O=C1C=C(Cn2cc(COc3ccc(Cl)cc3)nn2)C(=O)C=C1O`, the IC50 falls from 1240 nM to 690 nM (1.8-fold).

`COc1cc(OC)cc(OCc2cn(CC3=CC(=O)C(O)=CC3=O)nn2)c1` and `COc1cc(OCc2cn(CC3=CC(=O)C(O)=CC3=O)nn2)cc(OC)c1OC` are within 1.5-fold of each other in IC50: 740 nM for the first, 870 nM for the second.

Compared with `O=C1C=C(Cn2cc(COc3ccc(CO)cc3)nn2)C(=O)C=C1O`, `O=C1C=C(Cn2cc(COc3ccc(Br)cc3)nn2)C(=O)C=C1O` is 5.2-fold higher in IC50: 1320 nM for the first, 6800 nM for the second.

Compared with `O=C1C=C(Cn2cc(COc3ccccc3)nn2)C(=O)C=C1O`, `O=C1C=C(Cn2cc(COc3ccc(F)cc3)nn2)C(=O)C=C1O` is 1.5-fold lower in IC50: 1330 nM for the first, 880 nM for the second.

Compared with `CC(=O)Nc1ccc(OCc2cn(CC3=CC(=O)C(O)=CC3=O)nn2)cc1`, `O=C1C=C(Cn2cc(COc3ccc([N+](=O)[O-])cc3)nn2)C(=O)C=C1O` is 5.1-fold lower in IC50: 2640 nM for the first, 520 nM for the second.

First: Nc1nc(Cc2nnc(SCC(=O)Nc3ccccc3)n2-c2ccccc2)cs1
Second: Nc1nc(Cc2nnc(SCC(=O)NCc3ccccc3)n2-c2ccccc2)cs1
The IC50 of the first is 7.8-fold lower: 130 nM for the first, 1010 nM for the second.

Compared with `COc1cccc(OC)c1C1=NC(=S)C(c2nn[nH]n2)C(=O)O1` (stereo unspecified), `Cc1ccc(C2=NC(=S)C(c3nn[nH]n3)C(=O)O2)cc1` (stereo unspecified) is 1.6-fold higher in IC50: 200 nM for the first, 310 nM for the second.

`O=C1OC(c2cc([N+](=O)[O-])cc([N+](=O)[O-])c2)=NC(=S)C1c1nn[nH]n1` (stereo unspecified) and `O=C1OC(c2ccc([N+](=O)[O-])cc2)=NC(=S)C1c1nn[nH]n1` (stereo unspecified) are within 1.5-fold of each other in IC50: 75 nM for the first, 81 nM for the second.

`CCc1ccc(NC(=O)CSc2nnc(Cc3csc(N)n3)n2-c2ccccc2)cc1` and `CCOc1ccc(NC(=O)CSc2nnc(Cc3csc(N)n3)n2-c2ccccc2)cc1` are within 1.5-fold of each other in IC50: 120 nM for the first, 170 nM for the second.

Going from `N#Cc1ccc(OCc2cn(CC3=CC(=O)C(O)=CC3=O)nn2)cc1` to `O=C1C=C(Cn2cc(COc3ccc(Cl)cc3Cl)nn2)C(=O)C=C1O`, the IC50 falls from 6290 nM to 1120 nM (5.6-fold).

Going from `O=C1OC(c2cccc([N+](=O)[O-])c2)=NC(=S)C1C1N=NN=N1` (stereo unspecified) to `O=C1OC(c2ccc(Cl)cc2)=NC(=S)C1c1nn[nH]n1` (stereo unspecified), the IC50 rises from 60 nM to 290 nM (4.8-fold).

Going from `CCc1ccccc1NC(=O)CSc1nnc(Cc2csc(N)n2)n1-c1ccccc1` to `Cc1ccccc1NC(=O)CSc1nnc(Cc2csc(N)n2)n1-c1ccccc1`, the IC50 falls from 65 nM to 15 nM (4.3-fold).

Going from `Nc1nc(Cc2nnc(SCC(=O)NCCc3ccccc3)n2-c2ccccc2)cs1` to `Cc1ccc(NC(=O)CSc2nnc(Cc3csc(N)n3)n2-c2ccccc2)cc1C`, the IC50 rises from 16 nM to 110 nM (6.9-fold).

Compared with `Cc1cc(C)cc(NC(=O)CSc2nnc(Cc3csc(N)n3)n2-c2ccccc2)c1`, `Cc1ccc(C)c(NC(=O)CSc2nnc(Cc3csc(N)n3)n2-c2ccccc2)c1` is 4.1-fold lower in IC50: 240 nM for the first, 58 nM for the second.

Going from `Cc1cccc(NC(=O)CSc2nnc(Cc3csc(N)n3)n2-c2ccccc2)c1C` to `Cc1ccc(NC(=O)CSc2nnc(Cc3csc(N)n3)n2-c2ccccc2)c(C)c1`, the IC50 falls from 2010 nM to 54 nM (37-fold).

What follows are compounds tested against T1, Mushroom tyrosinase (assay: Inhibition of mushroom tyrosinase using L-DOPA as substrate preincubated for 10 mins followed by substrate addition by absorbance based analysis).

Going from `CN(C)c1ccc(C2CC(c3cc4ccccc4oc3=O)=NN2c2nc(-c3ccc(Br)cc3)cs2)cc1` (stereo unspecified) to `O=c1oc2ccccc2cc1C1=NN(c2nc(-c3ccc(Br)cc3)cs2)C(c2ccc(Br)cc2)C1` (stereo unspecified), the IC50 falls from 220 nM to 52 nM (4.2-fold).

First: COc1cc(OC)c(/C=N/c2nnc(S)s2)c(OC)c1
Second: COc1cc(/C=N/c2nnc(S)s2)cc(OC)c1O
The IC50 of the first is 1.9-fold higher: 900 nM for the first, 473 nM for the second.

Going from `O=c1oc2ccccc2cc1C1=NN(c2nc(-c3ccc(Br)cc3)cs2)C(c2ccccc2O)C1` (stereo unspecified) to `O=c1oc2ccccc2cc1C1=NN(c2nc(-c3ccc(Br)cc3)cs2)C(c2ccccc2)C1` (stereo unspecified), the IC50 rises from 96 nM to 260 nM (2.7-fold).

Going from `O=c1oc2ccccc2cc1C1=NN(c2nc(-c3ccc(Br)cc3)cs2)C(c2ccc([N+](=O)[O-])cc2)C1` (stereo unspecified) to `O=c1oc2ccccc2cc1C1=NN(c2nc(-c3ccc(Br)cc3)cs2)C(c2ccc(O)cc2)C1` (stereo unspecified), the IC50 rises from 130 nM to 230 nM (1.8-fold).

Going from `S=c1[nH]nc(/N=C/c2ccc(Cl)cc2)s1` to `CC(C)(C)c1ccc(/C=N/c2nnc(S)s2)cc1`, the IC50 falls from 2460 nM to 1400 nM (1.8-fold).

Compared with `CCn1c2ccccc2c2cc(C3CC(c4cc5ccccc5oc4=O)=NN3c3nc(-c4ccc(Br)cc4)cs3)ccc21` (stereo unspecified), `O=c1oc2ccccc2cc1C1=NN(c2nc(-c3ccc(Br)cc3)cs2)C(c2ccc(Cl)cc2)C1` (stereo unspecified) is 4.6-fold higher in IC50: 100 nM for the first, 460 nM for the second.

`Sc1nnc(/N=C/c2cccc(Cl)c2)s1` and `Sc1nnc(/N=C/c2ccc(Cl)c(Cl)c2)s1` are within 1.5-fold of each other in IC50: 4750 nM for the first, 3620 nM for the second.

`Oc1ccc(Cl)cc1/C=N/c1nnc(S)s1` and `Oc1ccc(Br)cc1/C=N/c1nnc(S)s1` are within 1.5-fold of each other in IC50: 1710 nM for the first, 1970 nM for the second.

Compared with `O=c1oc2ccccc2cc1C1=NN(c2nc(-c3ccc(Br)cc3)cs2)C(C2=CC3C=CC=CC3N2)C1` (stereo unspecified), `O=c1oc2ccccc2cc1C1=NN(c2nc(-c3ccc(Br)cc3)cs2)C(c2ccco2)C1` (stereo unspecified) is 22-fold higher in IC50: 17 nM for the first, 380 nM for the second.

First: O=c1oc2ccccc2cc1C1=NN(c2nc(-c3ccc(Br)cc3)cs2)C(c2ccc(OCc3ccccc3)cc2)C1 (stereo unspecified)
Second: COc1ccc(C2CC(c3cc4ccccc4oc3=O)=NN2c2nc(-c3ccc(Br)cc3)cs2)cc1O (stereo unspecified)
The IC50 of the first is 12-fold higher: 970 nM for the first, 83 nM for the second.

Compared with `O=c1oc2ccccc2cc1C1=NN(c2nc(-c3ccc(Br)cc3)cs2)C(c2cc([N+](=O)[O-])ccc2O)C1` (stereo unspecified), `O=c1oc2ccccc2cc1C1=NN(c2nc(-c3ccc(Br)cc3)cs2)C(c2cc([N+](=O)[O-])ccc2Cl)C1` (stereo unspecified) is 32-fold lower in IC50: 910 nM for the first, 28 nM for the second.

Compared with `COc1cccc(C2CC(c3cc4ccccc4oc3=O)=NN2c2nc(-c3ccc(Br)cc3)cs2)c1O` (stereo unspecified), `COc1ccc(C2CC(c3cc4ccccc4oc3=O)=NN2c2nc(-c3ccc(Br)cc3)cs2)cc1[N+](=O)[O-]` (stereo unspecified) is 24-fold higher in IC50: 37 nM for the first, 870 nM for the second.

Going from `COc1cc(/C=N/c2nnc(S)s2)cc(OC)c1` to `COc1ccccc1/C=N/c1nnc(S)s1`, the IC50 falls from 5350 nM to 730 nM (7.3-fold).

`Oc1ccccc1/C=N/c1nnc(S)s1` and `Fc1ccccc1/C=N/c1nnc(S)s1` are within 1.5-fold of each other in IC50: 780 nM for the first, 760 nM for the second.

With `O=[N+]([O-])c1ccccc1/C=N/c1nnc(S)s1` the IC50 was 670 nM.

`Sc1nnc(/N=C/c2ccccc2)s1` was tested, and the IC50 was greater than 20000 nM.
